Kd data for one molecule are collected here from PMC10571041, “Activity of Single Insect Olfactory Receptors Triggered by Airborne Compounds Recorded in Self-Assembled Tethered Lipid Bilayer Nanoarchitectures” (ACS Applied Materials & Interfaces, 2023).

The test deals with T1, EcorOBP15-m1 (odorant binding protein) (Eupeodes corollae, UniProt A0A8F9RZG6, F82L).
T1 construct: recombinant protein expressed in E. coli
T1 sequence (A0A8F9RZG6 22-145 F82L): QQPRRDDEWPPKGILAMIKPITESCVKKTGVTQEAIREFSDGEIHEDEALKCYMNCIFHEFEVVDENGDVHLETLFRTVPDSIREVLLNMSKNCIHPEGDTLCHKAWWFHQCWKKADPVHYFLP
Briefly: competitive fluorescence displacement of 1-NPN.

Broadly, the Kd is the constant that tells how readily two partners part at equilibrium. High values mean weaker binding, low ones tighter binding. Regarding `CCCCCC(=O)OCC` [ethyl hexanoate], the Kd turned out to be 7.4 µM.
